According to US10898481B2 (priority 2018, dated 2021):
Read-outs that look alike come from different tables or passages of the source.

Legend:
[1] = target: hA2a (Homo sapiens (Human), UniProt P29274); test: Radioligand binding to hA2a membrane with [3H]-CGS21680
Description: The empty boxes in the tables below indicate data not collected yet.

[2] = target: hA2a/CHO (Homo sapiens (Human), UniProt P29274); test: cAMP inhibition assay in hA2a/CHO cells, 10 μM adenosine; format: cell-based; details: read-out: cAMP & FLIPR IC50 (nM) hA2a;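 note: compounds added to cells 30 min ahead of adenosine, then a further 30 min at 37 °C with adenosine before cAMP detection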
[3] = target: hA2b/CHO (Homo sapiens (Human), UniProt P29275); test: cAMP inhibition assay in hA2b/CHO cells, 10 μM adenosine; format: cell-based; details: read-out: cAMP & FLIPR IC50 (nM) hA2b;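 note: cells exposed to compound 30 min at 37 °C, then stimulated with adenosine a further 30 min, cAMP read after 60 min at room temperature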
[4] = target: mA2a/CHO (Mus musculus (Mouse), UniProt Q60613); test: cAMP inhibition assay in mA2a/CHO cells, 10 μM adenosine; format: cell-based; details: read-out: cAMP & FLIPR IC50 (nM) mA2a;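 note: compounds preincubated 30 min at 37 °C before the adenosine challenge, then 30 min further stimulation, readout after 60 min detection reagent incubation at room temperature in 384-well plates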
[5] = target: hADORA1/CHO (hA1 expressing) cells (Homo sapiens (Human), UniProt P30542); test: cell-based; details: FLIPR inhibition, 10 μM adenosine, read-out: cAMP & FLIPR IC50 (nM) hA1
[6] = target: hA3/CHO (Homo sapiens (Human), UniProt P0DMS8); test: cell-based
Method: hA2a/CHO, hA2b/CHO, hA3/CHO and mA2a/CHO (Genscript) were plated at 5×10^3 cells/well into 384-well polystyrene plates at the day of experiment. Compounds were pre-incubated with cells for 30 min at 37° C., 5% CO2. Then 10 μM adenosine was added to the cells and incubated for 30 min at 37° C., 5% CO2. Detection reagent (CISBIO) was added and the plates were incubated for 60 min at room temperature. The signal was captured by Envision.

[7] = Binding Affinity (IC50 nM) hA2a
[8] = read-out: Binding Affinity (IC50 nM) hA2a

hA2a, sequence (P29274 whole entry): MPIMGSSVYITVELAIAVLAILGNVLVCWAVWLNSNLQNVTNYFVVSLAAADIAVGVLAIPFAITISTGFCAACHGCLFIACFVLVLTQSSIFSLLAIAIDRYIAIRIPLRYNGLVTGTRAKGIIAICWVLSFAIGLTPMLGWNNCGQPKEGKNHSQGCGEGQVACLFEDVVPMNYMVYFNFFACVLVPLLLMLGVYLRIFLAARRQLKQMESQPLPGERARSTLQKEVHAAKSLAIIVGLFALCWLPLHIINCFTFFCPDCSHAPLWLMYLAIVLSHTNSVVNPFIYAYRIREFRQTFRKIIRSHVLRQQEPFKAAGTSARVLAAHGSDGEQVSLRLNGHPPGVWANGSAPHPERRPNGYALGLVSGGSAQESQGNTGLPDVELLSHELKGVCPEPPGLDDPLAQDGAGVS
hA2a/CHO, sequence (P29274 whole entry): as above
hADORA1/CHO (hA1 expressing) cells, sequence (P30542 whole entry): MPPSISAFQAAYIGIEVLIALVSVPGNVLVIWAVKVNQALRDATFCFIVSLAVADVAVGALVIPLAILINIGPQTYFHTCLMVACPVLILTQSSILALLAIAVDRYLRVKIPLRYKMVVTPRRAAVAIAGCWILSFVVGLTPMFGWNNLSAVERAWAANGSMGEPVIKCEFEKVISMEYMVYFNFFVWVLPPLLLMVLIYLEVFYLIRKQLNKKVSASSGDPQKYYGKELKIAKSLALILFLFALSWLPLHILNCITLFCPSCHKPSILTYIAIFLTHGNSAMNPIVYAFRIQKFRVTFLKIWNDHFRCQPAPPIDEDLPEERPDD
hA3/CHO, sequence (P0DMS8 whole entry): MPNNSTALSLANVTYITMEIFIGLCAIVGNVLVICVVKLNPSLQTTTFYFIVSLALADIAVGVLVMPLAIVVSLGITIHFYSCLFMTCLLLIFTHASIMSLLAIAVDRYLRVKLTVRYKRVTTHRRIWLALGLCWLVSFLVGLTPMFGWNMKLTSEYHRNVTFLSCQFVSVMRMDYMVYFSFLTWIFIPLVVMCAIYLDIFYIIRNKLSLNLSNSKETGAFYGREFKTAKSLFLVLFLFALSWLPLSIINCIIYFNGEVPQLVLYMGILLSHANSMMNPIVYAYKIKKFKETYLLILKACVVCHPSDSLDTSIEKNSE
mA2a/CHO, sequence (Q60613 whole entry): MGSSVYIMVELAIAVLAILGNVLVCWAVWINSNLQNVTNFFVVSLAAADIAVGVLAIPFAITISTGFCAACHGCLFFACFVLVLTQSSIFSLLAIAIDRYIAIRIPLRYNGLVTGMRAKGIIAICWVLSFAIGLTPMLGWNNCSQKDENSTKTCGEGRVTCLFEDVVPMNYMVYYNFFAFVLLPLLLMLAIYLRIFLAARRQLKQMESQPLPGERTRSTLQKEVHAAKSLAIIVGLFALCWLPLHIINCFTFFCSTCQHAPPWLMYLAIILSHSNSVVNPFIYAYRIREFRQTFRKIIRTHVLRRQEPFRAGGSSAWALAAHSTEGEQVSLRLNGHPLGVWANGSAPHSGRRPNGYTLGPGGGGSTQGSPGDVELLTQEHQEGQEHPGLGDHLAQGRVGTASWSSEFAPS
hA2b/CHO, sequence (P29275 whole entry): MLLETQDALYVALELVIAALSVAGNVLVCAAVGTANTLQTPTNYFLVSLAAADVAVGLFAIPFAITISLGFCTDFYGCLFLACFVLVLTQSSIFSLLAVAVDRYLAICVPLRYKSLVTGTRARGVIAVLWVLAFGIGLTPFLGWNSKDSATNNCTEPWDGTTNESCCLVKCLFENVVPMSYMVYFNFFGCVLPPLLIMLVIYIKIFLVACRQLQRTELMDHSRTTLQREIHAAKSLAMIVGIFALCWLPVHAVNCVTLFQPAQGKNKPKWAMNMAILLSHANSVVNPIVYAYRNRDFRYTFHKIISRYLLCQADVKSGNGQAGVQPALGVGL

Row | SMILES | IC50 [1, 7] | IC50 [2] | IC50 [3] | IC50 [4] | IC50 [5] | IC50 [6] | IC50 [1, 8]
1 | CC(NC(=O)c1nc(-c2ccc(=O)n(C)c2)c(-c2ncco2)nc1N)c1c(F)cccc1F (single isomer, unassigned) [Example 40, 3-amino-N-(1-(2,6-difluorophenyl)ethyl)-6-(1-methyl-6-oxo-1,6-dihydropyridin-3-yl)-5-(oxazol-2-yl)pyrazine-2-carboxamide] | 5.2 nM | 51 nM | 1350 nM | 211 nM | 10000 nM | – | –
2 | Cc1cnc2ccc(-c3nc(C(=O)NCC4CCO4)c(N)nc3-c3ncco3)cn12 (single isomer, unassigned) [Example 134] | 5.5 nM | 4.3 nM | 314 nM | 77 nM | – | – | –
3 | Cc1cnc2ccc(-c3nc(C(=O)NCC4CCO4)c(N)nc3-c3ncco3)cn12 (single isomer, unassigned) [Example 135] | 2 nM | 2.3 nM | 182 nM | 23 nM | – | – | –
4 | Cc1cc(-c2nc(C(=O)NCc3cccc(N(C)C)n3)c(N)nc2-c2ccc(F)cc2)cc(C)n1 [Example 9, 3-amino-N-[[6-(dimethylamino)pyridin-2-yl]methyl]-6-(2,6-dimethylpyridin-4-yl)-5-(4-fluorophenyl)pyrazine-2-carboxamide] | – | 5.4 nM | ≥ 10000 nM | 25 nM | 1000 nM | ≥ 10000 nM | –
5 | Cc1cc(-c2nc(C(=O)NCc3c(F)cccc3F)c(N)nc2-c2ncco2)ccn1 [Example 10, 3-amino-N-(2,6-difluorobenzyl)-6-(2-methylpyridin-4-yl)-5-(oxazol-2-yl) pyrazine-2-carboxamide] | – | 17 nM | 17 nM | 41 nM | 58 nM | ≥ 10000 nM | –
6 | Cn1cc(-c2nc(C(=O)NCc3ncccc3C(F)(F)F)c(N)nc2-c2ncco2)ccc1=O [Example 11, 3-amino-6-(1-methyl-6-oxo-1,6-dihydropyridin-3-yl)-5-(oxazol-2-yl)-N-((3-(trifluoromethyl)pyridin-2-yl)methyl)pyrazine-2-carboxamide] | – | 89 nM | 1010 nM | 87 nM | 4490 nM | ≥ 10000 nM | –
7 | Cn1nc(-c2nc(C(=O)NCc3c(F)cccc3F)c(N)nc2-c2ncco2)ccc1=O [Example 37, 3-amino-N-(2,6-difluorobenzyl)-6-(1-methyl-6-oxo-1,6-dihydropyridazin-3-yl)-5-(oxazol-2-yl)pyrazine-2-carboxamide] | – | 9.3 nM | 95 nM | 56 nM | 28 nM | – | 1 nM
8 | Nc1nc(-c2ncco2)c(-c2ccc(=O)n(CCO)c2)nc1C(=O)NCc1c(F)cccc1F [Example 41, 3-amino-N-(2,6-difluorobenzyl)-6-(1-(2-hydroxyethyl)-6-oxo-1,6-dihydropyridin-3-yl)-5-(oxazol-2-yl)pyrazine-2-carboxamide] | – | 1.6 nM | 38 nM | 13 nM | 123 nM | – | 3.3 nM
9 | Cc1cnc2ccc(-c3nc(C(=O)N[C@H]4CCN(C)C4)c(N)nc3-c3ccc(F)cc3)cn12 [Example 200-2, (S)-3-amino-5-(4-fluorophenyl)-6-(3-methylimidazo[1,2-a]pyridin-6-yl)-N-(1-methylpyrrolidin-3-yl)pyrazine-2-carboxamide] | – | 12 nM | 3540 nM | 169 nM | > 10000 nM | – | –
10 | Cc1ccn(-c2nc(N)c(C(=O)NC[C@H]3CCCN3C)nc2-c2ccc3ncc(C)n3c2)n1 [Example 201-2, (R)-3-amino-5-(3-methyl-1H-pyrazol-1-yl)-6-(3-methylimidazo[1,2-a]pyridin-6-yl)-N-((1-methylpyrrolidin-2-yl)methyl)pyrazine-2-carboxamide] | – | 29 nM | > 10000 nM | 519 nM | > 10000 nM | – | –
11 | Cc1cnc2ccc(-c3nc(C(=O)N4CC[C@@H](N(C)C)C4)c(N)nc3-c3ccc(F)cc3)cn12 [Example 203-1, (R)-(3-amino-5-(4-fluorophenyl)-6-(3-methylimidazo[1,2-a]pyridin-6-yl)pyrazin-2-yl)(3-(dimethylamino)pyrrolidin-1-yl)methanone] | – | 15 nM | > 10000 nM | 161 nM | 91 nM | – | –
12 | COC[C@H]1CCCN1C(=O)c1nc(-c2ccc3ncc(C)n3c2)c(-c2ccc(F)cc2)nc1N [Example 204-1, (R)-(3-amino-5-(4-fluorophenyl)-6-(3-methylimidazo[1,2-a]pyridin-6-yl)pyrazin-2-yl)(2-(methoxymethyl)pyrrolidin-1-yl)methanone] | – | 49 nM | > 10000 nM | 249 nM | 294 nM | – | –
13 | Cc1cnc2ccc(-c3nc(C(=O)NCCc4nccn4C)c(N)nc3-c3ncco3)cn12 [Example 205, 3-amino-N-(2-(1-methyl-1H-imidazol-2-yl)ethyl)-6-(3-methylimidazo[1,2-a]pyridin-6-yl)-5-(oxazol-2-yl)pyrazine-2-carboxamide] | – | 2 nM | 67 nM | 7.5 nM | 153 nM | – | –
14 | Cc1cnc2ccc(-c3nc(C(=O)NCCN4CCCC4=O)c(N)nc3-c3ncco3)cn12 [Example 208, 3-amino-6-(3-methylimidazo[1,2-a]pyridin-6-yl)-5-(oxazol-2-yl)-N-(2-(2-oxopyrrolidin-1-yl)ethyl)pyrazine-2-carboxamide] | – | 8.9 nM | 1230 nM | 19 nM | 9540 nM | – | –
15 | Cc1cnc2ccc(-c3nc(C(=O)NCCC(=O)N4CCCCC4)c(N)nc3-c3ncco3)cn12 [Example 215, 3-amino-6-(3-methylimidazo[1,2-a]pyridin-6-yl)-5-(oxazol-2-yl)-N-(3-oxo-3-(piperidin-1-yl)propyl)pyrazine-2-carboxamide] | – | 12 nM | 568 nM | 9.6 nM | 891 nM | – | –
16 | CNC(=O)CCNC(=O)c1nc(-c2ccc3ncc(C)n3c2)c(-c2ncco2)nc1N [Example 225, 3-amino-N-(3-(methylamino)-3-oxopropyl)-6-(3-methylimidazo[1,2-a]pyridin-6-yl)-5-(oxazol-2-yl)pyrazine-2-carboxamide] | – | 32 nM | 254 nM | 177 nM | > 10000 nM | – | –
17 | Cc1cnc2ccc(-c3nc(C(=O)NC[C@@H]4CCCO4)c(N)nc3-n3nccn3)cn12 [Example 226, (S)-3-amino-6-(3-methylimidazo[1,2-a]pyridin-6-yl)-N-((tetrahydrofuran-2-yl)methyl)-5-(2H-1,2,3-triazol-2-yl) pyrazine-2-carboxamide] | – | 3 nM | 177 nM | 30 nM | 947 nM | – | –
18 | Cc1cnc2ccc(-c3nc(C(=O)NCCN(C)c4ccccn4)c(N)nc3-c3ncco3)cn12 [Example 240, 3-amino-N-(2-(methyl(pyridin-2-yl)amino)ethyl)-6-(3-methylimidazo[1,2-a]pyridin-6-yl)-5-(oxazol-2-yl)pyrazine-2-carboxamide] | – | 18 nM | 521 nM | 65 nM | 108 nM | – | –
19 | Cc1cnc2ccc(-c3nc(C(=O)NC[C@H]4CCOC4)c(N)nc3-n3nccn3)cn12 [Example 242, (R)-3-amino-6-(3-methylimidazo[1,2-a]pyridin-6-yl)-N-((tetrahydrofuran-3-yl)methyl)-5-(2H-1,2,3-triazol-2-yl) pyrazine-2-carboxamide] | – | 2.9 nM | 683 nM | 51 nM | 294 nM | – | –
20 | COCCNC(=O)c1nc(-c2ccc3ncc(C)n3c2)c(-n2nccn2)nc1N [Example 243, 3-amino-N-(2-methoxyethyl)-6-(3-methylimidazo[1,2-a]pyridin-6-yl)-5-(2H-1,2,3-triazol-2-yl)pyrazine-2-carboxamide] | – | 7.6 nM | 181 nM | 30 nM | 92 nM | – | –
21 | Cc1cnc2ccc(-c3nc(C(=O)NCCN(C)c4ccccc4)c(N)nc3-c3ncco3)cn12 [Example 244, 3-amino-N-(2-(methyl(phenyl)amino)ethyl)-6-(3-methylimidazo[1,2-a]pyridin-6-yl)-5-(oxazol-2-yl)pyrazine-2-carboxamide] | – | 16 nM | 157 nM | 31 nM | 260 nM | – | –
22 | Cc1cnc2ccc(-c3nc(C(=O)NC4CC4)c(N)nc3-c3ncco3)cn12 [Example 245, 3-amino-N-cyclopropyl-6-(3-methylimidazo[1,2-a]pyridin-6-yl)-5-(oxazol-2-yl)pyrazine-2-carboxamide] | – | 3.8 nM | 247 nM | 39 nM | 87 nM | – | –
23 | COC1CCC(NC(=O)c2nc(-c3ccc4ncc(C)n4c3)c(-c3ncco3)nc2N)CC1 (centres unmarked) [Example 249, 3-amino-N-(4-methoxycyclohexyl)-6-(3-methylimidazo[1,2-a]pyridin-6-yl)-5-(oxazol-2-yl)pyrazine-2-carboxamide] | – | 5.7 nM | 423 nM | 50 nM | > 10000 nM | – | –
